Some test systems named below: IGROV1 ovarian; MDA-MB-435; HT29 colon; UO-31 renal; OVCAR-3 ovarian; HOP-92 NSCLC; HCT-116 colon; RPMI-8226 leukemia; EKVX NSCLC; HL-60(TB) leukemia.
What all share (assay): NCI-60 cell line screen, 48 h

Each structure is given as a SMILES string.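 These data come from cells grown in 96-well plates and exposed to compound for 48 hours at five concentrations. Definition used: TGI = concentration required for complete inhibition of growth.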

`CC1(C)CC(C#Cc2ccccc2)CC(C)(C)N1O`: the TGI in the assay on IGROV1 ovarian is greater than 100 µM; in the assay with MDA-MB-435, 44.6 µM; with HT29 colon it was 29.4 µM; in the assay with UO-31 renal it was 32.4 µM; in the assay with OVCAR-3 ovarian, 37.4 µM; with HOP-92 NSCLC, 45 µM. In addition, the TGI in the assay with HCT-116 colon was 43.5 µM; in the assay with RPMI-8226 leukemia, 69.1 µM; in the assay with EKVX NSCLC, greater than 100 µM; in the assay with HL-60(TB) leukemia, 64.4 µM.
Consider `O=S1SC(=S)C2C=CC=CC21` (stereo not given), for which the TGI in the assay on IGROV1 ovarian, in the assay with MDA-MB-435, in the assay with HT29 colon, with UO-31 renal, with OVCAR-3 ovarian and with HOP-92 NSCLC was greater than 100 µM throughout. Also, the TGI in the assay with HCT-116 colon, with RPMI-8226 leukemia, in the assay on EKVX NSCLC and in the assay on HL-60(TB) leukemia was greater than 100 µM in each case.
Take `CC(C)N1CN(c2ccccc2)C2(CCN(CCCC(=O)c3ccc(F)cc3)CC2)C1=O`: the TGI in the assay on IGROV1 ovarian worked out at 17.5 µM; in the assay on MDA-MB-435, 27.6 µM; in the assay on HT29 colon, 7.85 µM; in the assay on UO-31 renal, 58 µM; in the assay on OVCAR-3 ovarian, 65.6 µM; in the assay with HOP-92 NSCLC, 16.6 µM. In addition, the TGI in the assay with HCT-116 colon is 5.52 µM; with RPMI-8226 leukemia, 31.1 µM; in the assay with EKVX NSCLC, greater than 100 µM; in the assay on HL-60(TB) leukemia, 40.7 µM.
`O=c1c2ccccc2sc2ccccc12`: the TGI in the assay on IGROV1 ovarian, in the assay with MDA-MB-435, with HT29 colon, in the assay on UO-31 renal, in the assay on OVCAR-3 ovarian and with HOP-92 NSCLC was greater than 100 µM in each case. For the same compound, the TGI with HCT-116 colon, in the assay on RPMI-8226 leukemia, with EKVX NSCLC and with HL-60(TB) leukemia was greater than 100 µM each time.
`COc1ccc2c(c1)c(=O)c1c(NCCNCCO)ccc3c(=O)n(CCN(C)C)c(=O)n2c31`: the TGI worked out at 1.46 µM in the assay with IGROV1 ovarian; 0.305 µM with MDA-MB-435; 0.425 µM in the assay on HT29 colon; 1.61 µM in the assay on UO-31 renal; 4.62 µM in the assay with OVCAR-3 ovarian; 0.775 µM in the assay on HOP-92 NSCLC. Besides, the TGI was 0.348 µM in the assay on HCT-116 colon, 1.15 µM in the assay on RPMI-8226 leukemia, 0.819 µM with EKVX NSCLC and greater than 100 µM with HL-60(TB) leukemia.
For the compound `COc1nc2c(N3CCCC3)nc(N3CCNCC3)nc2nc1NCc1ccccc1`, the TGI was determined as 8.8 µM with IGROV1 ovarian; 2.95 µM in the assay on MDA-MB-435; 4.65 µM with HT29 colon; 2.85 µM with UO-31 renal; 2.42 µM in the assay on OVCAR-3 ovarian; 5.2 µM in the assay with HOP-92 NSCLC. Besides, the TGI in the assay on HCT-116 colon stood at 2.63 µM; in the assay with RPMI-8226 leukemia, 3.96 µM; in the assay with EKVX NSCLC it was 10.8 µM; in the assay with HL-60(TB) leukemia it was 3.7 µM.
`O=S1(=O)c2cnccc2NC(=NCc2ccccc2)N1c1ccccc1`: the TGI with IGROV1 ovarian, in the assay on MDA-MB-435, in the assay on HT29 colon, in the assay with UO-31 renal, in the assay with OVCAR-3 ovarian and in the assay on HOP-92 NSCLC was greater than 100 µM each time. The TGI was greater than 100 µM in the assay with HCT-116 colon, 58.8 µM with RPMI-8226 leukemia, greater than 100 µM with EKVX NSCLC and greater than 100 µM in the assay with HL-60(TB) leukemia.
Turning to `CC(C)=CCC[C@@H](C)C1=C(O)C(N)=C(C)C(=O)C1=O`, the TGI in the assay with IGROV1 ovarian was greater than 40.2 µM; in the assay with MDA-MB-435 it was greater than 100 µM; with HT29 colon, greater than 100 µM; in the assay on UO-31 renal, greater than 71.1 µM; in the assay with OVCAR-3 ovarian it was greater than 100 µM; with HOP-92 NSCLC it was greater than 100 µM. Besides, the TGI in the assay with HCT-116 colon was greater than 100 µM; with RPMI-8226 leukemia, 98.6 µM; in the assay with EKVX NSCLC, greater than 100 µM; with HL-60(TB) leukemia it was 10.9 µM.
On to `O=C(O)CN(CC(=O)O)C(C(=O)O)c1ccccc1` (stereo not given), for which the TGI in the assay on IGROV1 ovarian, in the assay on MDA-MB-435, in the assay with HT29 colon, in the assay on UO-31 renal, in the assay on OVCAR-3 ovarian and with HOP-92 NSCLC was greater than 100 µM each time. In addition, the TGI in the assay with HCT-116 colon, in the assay on RPMI-8226 leukemia, in the assay with EKVX NSCLC and in the assay with HL-60(TB) leukemia was greater than 100 µM throughout.
With `O=C1C(C(O)(C(F)(F)F)C(F)(F)F)CCC1C(O)(C(F)(F)F)C(F)(F)F` (stereo not given), the TGI in the assay with IGROV1 ovarian was greater than 86 µM; with MDA-MB-435, greater than 67.6 µM; in the assay on HT29 colon, greater than 29.3 µM; in the assay on UO-31 renal it was 34.3 µM; in the assay on OVCAR-3 ovarian, greater than 100 µM; in the assay on HOP-92 NSCLC it was 0.245 µM. Further, the TGI was 13.1 µM with HCT-116 colon, 13.5 µM in the assay with RPMI-8226 leukemia, greater than 100 µM in the assay on EKVX NSCLC and 6.44 µM in the assay with HL-60(TB) leukemia.
In the case of `O=C(OCC1OC(n2nc(Cn3nnc(-c4cccnc4)n3)n(-c3cccc4ccccc34)c2=S)C(OC(=O)c2ccccc2)C1OC(=O)c1ccccc1)c1ccccc1` (stereo not given), the TGI in the assay on IGROV1 ovarian, with MDA-MB-435, in the assay on HT29 colon, with UO-31 renal, with OVCAR-3 ovarian and with HOP-92 NSCLC was greater than 100 µM each time. Also, the TGI with HCT-116 colon, in the assay with RPMI-8226 leukemia, with EKVX NSCLC and with HL-60(TB) leukemia was greater than 100 µM throughout.
Turning to `N#Cc1c(-c2ccccc2)c2c([nH]c1=O)-c1cc([N+](=O)[O-])ccc1CCC2`, the TGI in the assay with IGROV1 ovarian is greater than 100 µM; in the assay with MDA-MB-435 it was greater than 100 µM; in the assay on HT29 colon, greater than 100 µM; with UO-31 renal, greater than 100 µM; in the assay on OVCAR-3 ovarian it was 45 µM; with HOP-92 NSCLC, 58.9 µM. Further, the TGI in the assay on HCT-116 colon is greater than 100 µM; with RPMI-8226 leukemia it was greater than 100 µM; with EKVX NSCLC, 88.5 µM; with HL-60(TB) leukemia it was 72.3 µM.

(Values after PubChem BioAssay (NCI).)
